Measured values reported in ChEMBL document CHEMBL4431349, “Synthesis and in vitro evaluation of water-soluble 1,4-diphenethylpiperazine analogs as novel inhibitors of the vesicular monoamine transporter-2” (Bioorg Med Chem Lett, 2016).

What was measured:
[1] = target: Voltage-gated inwardly rectifying potassium channel KCNH2 (Homo sapiens, UniProt Q12809); experiment: Inhibition of [3H]dofetilide binding to human ERG expressed in HEK293 cell membranes after 60 mins by liquid scintillation spectrometric analysis
[2] = Thermodynamic solubility of the compound in water at pH 7.4 after 24 hrs by HPLC based shake flask method; type: physicochemical; conditions: read-out: Therm_solubility

Chain of Voltage-gated inwardly rectifying potassium channel KCNH2 (Q12809 whole entry): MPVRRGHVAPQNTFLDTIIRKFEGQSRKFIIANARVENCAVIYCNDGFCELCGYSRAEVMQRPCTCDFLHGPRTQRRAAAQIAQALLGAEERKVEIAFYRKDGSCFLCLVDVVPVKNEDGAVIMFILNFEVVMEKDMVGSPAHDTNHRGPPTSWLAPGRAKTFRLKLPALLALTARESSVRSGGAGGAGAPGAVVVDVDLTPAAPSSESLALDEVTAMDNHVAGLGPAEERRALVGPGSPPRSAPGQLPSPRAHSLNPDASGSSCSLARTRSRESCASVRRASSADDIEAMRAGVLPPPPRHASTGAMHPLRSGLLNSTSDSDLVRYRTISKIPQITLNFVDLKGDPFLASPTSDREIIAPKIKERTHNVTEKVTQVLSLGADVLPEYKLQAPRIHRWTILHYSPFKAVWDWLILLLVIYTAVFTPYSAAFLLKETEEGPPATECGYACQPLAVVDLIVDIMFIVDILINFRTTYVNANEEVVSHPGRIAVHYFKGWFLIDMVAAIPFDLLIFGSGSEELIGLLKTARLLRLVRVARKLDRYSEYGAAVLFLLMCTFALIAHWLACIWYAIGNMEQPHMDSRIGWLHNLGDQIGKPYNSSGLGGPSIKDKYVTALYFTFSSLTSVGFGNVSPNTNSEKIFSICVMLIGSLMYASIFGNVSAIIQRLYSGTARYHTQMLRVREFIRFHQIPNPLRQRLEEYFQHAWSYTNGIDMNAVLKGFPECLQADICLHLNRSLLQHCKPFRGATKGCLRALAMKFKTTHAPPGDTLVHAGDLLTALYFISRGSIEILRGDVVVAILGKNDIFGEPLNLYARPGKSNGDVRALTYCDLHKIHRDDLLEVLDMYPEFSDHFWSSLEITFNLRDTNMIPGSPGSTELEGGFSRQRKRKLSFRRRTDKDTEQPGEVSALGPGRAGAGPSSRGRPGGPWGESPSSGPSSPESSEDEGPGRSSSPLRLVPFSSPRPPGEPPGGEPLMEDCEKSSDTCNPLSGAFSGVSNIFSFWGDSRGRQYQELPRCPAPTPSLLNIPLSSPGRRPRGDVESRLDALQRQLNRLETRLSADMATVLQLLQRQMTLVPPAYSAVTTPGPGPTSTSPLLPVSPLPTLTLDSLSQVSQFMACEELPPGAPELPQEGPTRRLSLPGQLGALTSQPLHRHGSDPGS

## COc1ccccc1CCN1CCN(CCc2ccccc2OC)CC1
[1]
  Ki: 1020 nM

## Clc1ccccc1CCN1CCN(CCc2ccccc2Cl)CC1
[1]
  Ki: 1080 nM

## COc1ccccc1CCN1CCN(CCc2ccccc2)CC1.Cl.Cl
[2]
  solubility thermodynamic at 24 h: 33.3 mg/mL
[1]
  Ki: 2940 nM
